Data on one compound can be found in US20240279710A1, “FLUORESCENT PROBES” (TOHOKU TECHNO ARCH CO., LTD., priority 2021, published 2024).

The test system of data set [1] is iPS cell-derived three-dimensional stereoscopic retinal tissue. The experiment in a line: Glutamic acid injury model of iPS cell-derived three-dimensional stereoscopic retinal tissue. Type of data set: cell-based, human. How it is done: Next, to confirm a reaction under conditions closer to those of a living organism, the iPS cell-derived three-dimensional stereoscopic retinal tissue on the 60th day of the differentiation induction was left at rest in a 24-well plate containing 1 mL of a reaction medium (obtained by adding CaCl2 (final concentration: 2.4 mM) and HEPES (final concentration: 20 mM) to a HBSS solution) in each well (n=5). The tissue was washed with 1 mL of the reaction medium twice, and glutamic acid was added thereto so that its final concentration became 0 μM, 300 μM, or 1 mM, followed by a reaction for 1 hour. Compound 19 was added to the resultant 1 hour after the addition of glutamic acid so that its final concentration became 0 μM, 0.25 μM, 1.2 μM, or 5.0 μM, and an image of the fluorescence of the mixture was taken with a fluorescence microscope (ZEISS Axio Vert.A1) (a RGB mode (lower stage) and a B/W mode (upper stage)) 1 hour thereafter. In all image-taking operations, an exposure time was fixed to 200 ms. The results of groups in which the final concentrations of glutamic acid are 0 μM, 300 μM, and 1 mM are shown in FIG. 25, FIG. 26, and FIG. 27, respectively. […] In addition, a graphical representation of an average calculated from fluorescence intensities in the images taken in the B/W mode (n=3) is shown in FIG. 28. […] In addition, results obtained by comparing and examining the fluorescence intensities of Compound 19 and Compound 16 are shown in FIG. 29.

Data set [2] has as its system SH-SY5Y cells. In words: Live cell imaging of calpain activity in SH-SY5Y cells. It counts as cell-based. The following applies: 5 μM probe, 10 minutes incubation, FIG. 12. The protocol: Whether or not the improvement in enzymatic reactivity between the compound of the present invention and a calpain confirmed by the above-mentioned experiment remained the same even in a cell was verified. Calpain activity imaging in SH-SY5Y cells was performed on each of Compounds 16 and 19. Specifically, the SH-SY5Y cells (American Type Culture Collection, VA, USA) were cultured in a mixed medium of Dulbecco's modified eagle medium and Ham's F-12 medium (DMEM/F-12; Thermo Fisher Scientific, Inc.) (containing 10% fetal bovine serum (FBS; Thermo Fisher Scientific, Inc., MA, USA) and 100 U/mL penicillin-100 μg/mL streptomycin (PS; Thermo Fisher Scientific, Inc.)) under the conditions of 37° C. and 5% CO2-95% air. 6×10^4 to 8×10^4 Cells/well of the cells were seeded in a multiwell plate (μ-Plate 96 Well; ibidi, Grafelfing, Germany) coated with poly-D-lysine (Thermo Fisher Scientific, Inc.) and laminin (BD Biosciences, CA, USA), and were preincubated in a culture solution. Immediately after the removal of the culture solution in the wells, 200 μL of an assay solution (a culture solution containing a 5 μM probe) was added thereto, and the cells were incubated under the conditions of 37° C. and 5% CO2-95% air. 10 Minutes after that, a bright field image and a fluorescence image were taken with a confocal microscope (LSM 710, Carl Zeiss AG, Oberkochen, Germany).
Calpain activity imaging in SH-SY5Y cells was performed on each of Compounds 20 to 23, Compound 38, and Compound 56 in the same manner as in Example 9. In the case of each of Compounds 20 to 23 and Compound 38, a bright field image and a fluorescence image were taken after 30 minutes of incubation of the cells, and in the case of Compound 56, such images were taken after 20 minutes of incubation thereof.

Data set [3] addresses T1, recombinant human cathepsin B (Homo sapiens, UniProt P07858).
T1 construct: purchased R&D Systems 953-CY
In words: Fluorescence assay with cathepsin B. It counts as biochemical. As to conditions: 10 μM probe, 880 ng/mL cathepsin B, 50 mM TRIS pH 7.4, 37° C., excitation 475 nm, fluorescence 500-550 nm; FIG. 37. How it is done: The fluorescence assay of Compound 19 with time was performed. Specifically, 880 ng/mL of recombinant human cathepsin B (953-CY; R&D Systems, MN, USA) was added to a 50 mM TRIS buffer (pH: 7.4, 2 mM EGTA, 2 mM DTE) containing 10 μM of the synthesized fluorescent probe to perform an enzyme reaction at 37° C. The same operations as those described above except that cathepsin B was not added were performed as a negative control. The results of the measurement of a change in fluorescence intensity with time by cathepsin B are shown in FIG. 37 (excitation wavelength: 475 nm, fluorescence wavelength: from 500 nm to 550 nm).

Data set [4] can be described thus: Optical characteristics: absorption and fluorescence spectrum at each pH. The following applies: 10 mM phosphate buffer, pH 2 to 11, 1 μM probe, 1% DMSO, excitation 490 nm; neutral condition. It counts as physicochemical. The protocol:
The absorption spectrum and fluorescence spectrum of Compound 19 at each pH were each measured. Specifically, a measurement solution was prepared by adding a solution (0.1 mM) of Compound 19 in DMSO to a 10 mM phosphate buffer at each pH in the pH range of from 2 to 11 so that the final probe concentration became 1 μM, and the final DMSO concentration became 1%. The fluorescence spectrum of the measurement solution was measured at an excitation wavelength of 490 nm.

On to `COCC(=O)N[C@@H](CC(C)C)C(=O)N[C@@H](CCSC)C(=O)Nc1ccc2c(c1)Oc1cc(N)ccc1C21OCc2ccccc21` (stereo partly shown) [Compound 19], for which, in data set [1] (glutamic acid 300 μM or 1 mM, probe 0, 0.25, 1.2 or 5.0 μM, 1 hour, FIG. 26, FIG. 27), the “fluorescence images of retinal tissue” value is on record as “enhancement of fluorescence expression was observed in proportion to the concentration of Compound 19”. The “fluorescence intensity compared with Compound 16” value in data set [1] (glutamic acid 1 mM, probe 0.25 μM, 1.2 μM, or 5.0 μM, FIG. 29) was “stronger fluorescence than that of Compound 16”. In addition, the “average fluorescence intensity of retinal tissue (B/W mode)” value in data set [1] (same glutamic acid concentration (0 μM, 300 μM, 1 mM), probe 0 to 5.0 μM, FIG. 28) is reported as “fluorescence was strongly observed in a manner dependent on the concentration of Compound 19”. Further, in data set [2] (confocal microscope), the “calpain activity imaging in SH-SY5Y cells” value is “enabled the observation of calpain activity in the SH-SY5Y cells”. Further, the “clarity of live cell imaging compared to Compound 16” value in data set [2] is reported as “Clear imaging”. Further, in data set [3], the “change in fluorescence intensity with time by cathepsin B” value is reported as “functioned as a fluorescent probe for cathepsin B”. The “absorption spectrum and fluorescence spectrum at each pH” value in data set [4] was “mainly colorless and nonfluorescent”.
